In paper PMC4916434, “Evaluation of the inhibition potential of plumbagin against cytochrome P450 using LC-MS/MS and cocktail approach” (Scientific Reports, 2016):

Legend:
CYP2D6 = molecular target: T1, CYP2D6 (Homo sapiens, UniProt P10635); test: CYP2D6 inhibition (dextromethorphan O-demethylation) in pooled human liver microsomes, cocktail LC-MS/MS; type: in vitro ADME
T1 construct: consisting of pooled HLMs (0.5 mg/ml) or RLMs (1 mg/ml) and an NADPH-regenerating system; tissue Corning Gentest Corporation; host or cells: pooled human liver microsomes (n = 20)
T1 sequence (P10635 whole entry): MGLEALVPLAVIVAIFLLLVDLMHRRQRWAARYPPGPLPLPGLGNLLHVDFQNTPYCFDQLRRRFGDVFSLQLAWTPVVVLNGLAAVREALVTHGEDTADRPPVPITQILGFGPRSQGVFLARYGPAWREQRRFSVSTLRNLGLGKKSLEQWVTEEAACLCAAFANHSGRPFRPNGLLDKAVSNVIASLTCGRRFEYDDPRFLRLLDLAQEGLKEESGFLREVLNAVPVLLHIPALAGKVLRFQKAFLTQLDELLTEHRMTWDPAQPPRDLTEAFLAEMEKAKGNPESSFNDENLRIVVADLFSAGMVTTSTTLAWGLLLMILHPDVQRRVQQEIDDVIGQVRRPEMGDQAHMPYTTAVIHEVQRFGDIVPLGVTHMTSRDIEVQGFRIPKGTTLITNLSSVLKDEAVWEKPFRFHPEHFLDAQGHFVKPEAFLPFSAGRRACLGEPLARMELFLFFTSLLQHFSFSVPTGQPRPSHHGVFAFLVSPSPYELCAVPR
Experimental: (§1) Microsomal incubation was carried out at 37 °C in a mixture of 200 μl in 0.05 M Tris/HCl buffer (pH 7.4) consisting of pooled HLMs (0.5 mg/ml) or RLMs (1 mg/ml) and an NADPH-regenerating system including MgCl2 (5 mM), G6P (10 mM), G6PDH (0.4 U/ml) and NADP (1 mM). Substrates were added into the incubation mixture and obtained the final concentrations (10 μM phenacetin for CYP1A2, 20 μM bupropion for CYP2B1/6, 20 μM tolbutamide for CYP2C9/11, 5 μM dextromethorphan for CYP2D1/6, 20 μM chlorzoxazone for CYP2E1 and 10 μM midazolam for CYP3A2/4), which were close to Km respectively. The proportion of organic solvent was not higher than 1% (v/v) in the incubation mixture. After pre-incubation for 5 min, the reaction was initiated by addition of NADP. Incubations were performed for 20 min, stopped by adding 200 μl ice-cold acetonitrile. And then 20 μl internal standard solution was added (3-acetamidophenol 2 μg/ml, chlorpropamide 2 μg/ml and mebendazole 2 μg/ml). The solution was mixed thoroughly for 3 min and centrifuged for 10 min at 16,000 × g at 4 °C. The supernatant (60 μl) was transferred to autosampler vials, and 2 μl was injected into LC-MS/MS system.
(§2) The IC50 (concentration of inhibitor to cause 50% inhibition of original enzyme activity) values were determined with the same incubation condition above. The specific concentrations of plumbagin were ranged from 0.1 μM to 50 μM. The IC50 values were calculated by plotting relative activities over the logarithm of plumbagin concentrations using GraphPad Prism 5.0 (GraphPad software Inc., CA, USA).
(§3) Cocktail probe substrates were then added and incubated for 20 min. Reactions were stopped with 200 μl ice-cold acetonitrile. The samples were treated according to the microsomal incubation method and then injected into LC-MS/MS for analysis.
(§4) Kinetic studies were performed for determining the types of inhibition on CYP by plumbagin. Pooled HLMs (0.5 mg/ml) or RLMs (1 mg/ml) with plumbagin (1 μM, 2 μM, 5 μM and 10 μM) were incubated in 0.05 M Tris/HCl buffer (pH 7.4) for 20 min at 37 °C. A series of concentrations for cocktail probe substrates were used: 2.5–20 μM phenacetin for CYP1A2; 5–40 μM bupropion for CYP2B1/6; 5–40 μM tolbutamide for CYP2C9/11; 1.25–10 μM dextromethorphan for CYP2D1/6; 5–40 μM chlorzoxazone for CYP2E1; 2.5–80 μM midazolam for CYP3A2; and 0.625–5 μM midazolam for CYP3A4. Enzyme kinetics as well as statistical analysis were performed using GraphPad Prism 5.0.
(§5) All data were presented as mean ± SD. The IC50 values were fitted by non-linear regression analysis using GraphPad Prism 5.0. The kinetic parameters were obtained by fitting velocity data to kinetic models (Michaelis-Menten) using GraphPad Prism 5.0. The Lineweaver-Burk Plot (the reciprocal of reaction velocities versus the reciprocal of substrates concentrations) was used to determine the quality of fit to a specific inhibition model. The inhibition constant (Ki) was obtained by a secondary plot using the slopes of the primary Lineweaver-Burk Plot (Km/Vmax versus inhibitor concentrations). αKi was obtained from a secondary plot using the y-intercepts of the Lineweaver-Burk plot (1/Vmax versus inhibitor concentrations). All results were analyzed in quadruplicate. One-way analysis of variance was used to estimate the significance of differences. There was statistical significance between control and test groups if p < 0.05.

CYP1A2 = molecular target: T2, CYP1A2 (Rattus norvegicus, UniProt P04799); test: CYP1A2 inhibition (phenacetin O-deethylation) in rat liver microsomes, cocktail LC-MS/MS; type: in vitro ADME
T2 construct: consisting of pooled HLMs (0.5 mg/ml) or RLMs (1 mg/ml) and an NADPH-regenerating system; from tissue; host or cells: rat liver microsomes prepared in house
T2 sequence (P04799 1-513): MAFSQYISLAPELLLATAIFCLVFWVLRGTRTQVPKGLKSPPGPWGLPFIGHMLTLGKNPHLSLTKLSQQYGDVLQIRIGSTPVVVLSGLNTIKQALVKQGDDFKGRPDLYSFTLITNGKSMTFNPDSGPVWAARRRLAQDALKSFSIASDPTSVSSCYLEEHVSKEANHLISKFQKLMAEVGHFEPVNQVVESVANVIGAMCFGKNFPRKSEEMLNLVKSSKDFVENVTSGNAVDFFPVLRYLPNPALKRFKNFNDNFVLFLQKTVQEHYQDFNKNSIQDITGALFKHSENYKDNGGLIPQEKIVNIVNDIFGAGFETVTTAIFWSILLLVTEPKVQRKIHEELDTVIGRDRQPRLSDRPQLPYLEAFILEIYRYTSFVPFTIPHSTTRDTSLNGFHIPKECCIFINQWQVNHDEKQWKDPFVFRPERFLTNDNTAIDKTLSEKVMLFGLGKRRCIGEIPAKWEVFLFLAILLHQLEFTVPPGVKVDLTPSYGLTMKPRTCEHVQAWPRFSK
Experimental: In this study, the rats were fasted overnight and killed by cervical dislocation before removal of the liver. The liver was excised, rinsed with ice-cold saline (0.9% NaCl w/v), weighed and homogenized in a […] Tris/KCl buffer (pH 7.4). Subsequently, the homogenate was centrifuged at 10,000 × g at 4 °C for 30 min. The supernatant was then centrifuged at 105,000 × g at 4 °C for 60 min. The pellet was reconstituted with […] Tris/KCl buffer (pH 7.4) and stored at −150 °C until use. The protein concentration of the liver microsomes was determined by a protein quantitative assay using bicinchoninic acid[22].
as §1, §2, §3, §4
as §5, with “There was statistical significance between control and test groups if p < 0.05.” left out

SMILES: CC1=CC(=O)c2c(O)cccc2C1=O [plumbagin, 5-hydroxy-2-methyl-1,4-naphthoquinone]
- IC50 (CYP2D6): 10200 nM
- Type of inhibition (CYP2D6): mixed-type
- Ki (CYP2D6; HLMs, secondary Lineweaver-Burk plot, dextromethorphan 1.25-10 μM): 1460 nM
- α (CYP2D6; human, 20 min, pH 7.4): 0.66
- αKi (CYP2D6; human, 20 min, pH 7.4): 2.22 µM
- IC50 (CYP1A2): 2650 nM
- Ki (CYP1A2): 2640 nM
- α (CYP1A2; RLMs): 0.31
- Type of inhibition (CYP1A2; RLMs, Lineweaver-Burk): mixed-type
- Time-dependent inhibition (CYP1A2; RLMs, pre-incubation with NADPH 0, 5, 10, 20 min, plumbagin 0.2, 0.5, 1 μM): no time-dependent inhibition
- αKi (CYP1A2; RLMs, secondary plot of y-intercepts, phenacetin 2.5-20 μM): 8.51 µM
